Source: PubChem BioAssay (NCI)
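Test compounds were applied to cells in 96-well plates for 48 hours at 5 doses. Here, GI50 denotes the concentration required for 50% inhibition of growth. Definition used: TGI = concentration required for complete inhibition of growth.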

Assays:
Test in all cases: inhibition of tumour cell growth, NCI panel, 48 h
786-0 renal = test system: 786-0 renal
A498 renal = test system: A498 renal
A549 NSCLC = test system: A549 NSCLC
ACHN renal = test system: ACHN renal
BT-549 breast = test system: BT-549 breast
CAKI-1 renal = test system: CAKI-1 renal
CCRF-CEM leukemia = test system: CCRF-CEM leukemia
COLO 205 colon = test system: COLO 205 colon
DU-145 prostate = test system: DU-145 prostate
EKVX NSCLC = test system: EKVX NSCLC
HCC-2998 colon = test system: HCC-2998 colon
HCT-116 colon = test system: HCT-116 colon
HCT-15 colon = test system: HCT-15 colon
HL-60(TB) leukemia = test system: HL-60(TB) leukemia
HOP-62 NSCLC = test system: HOP-62 NSCLC
HOP-92 NSCLC = test system: HOP-92 NSCLC
HT29 colon = test system: HT29 colon
IGROV1 ovarian = test system: IGROV1 ovarian
K-562 leukemia = test system: K-562 leukemia
KM12 colon = test system: KM12 colon
LOX IMVI melanoma = test system: LOX IMVI melanoma
M14 melanoma = test system: M14 melanoma
MALME-3M melanoma = test system: MALME-3M melanoma
MCF7 breast = test system: MCF7 breast
MDA-MB-231 breast = test system: MDA-MB-231 breast
MDA-MB-435 = test system: MDA-MB-435
MOLT-4 leukemia = test system: MOLT-4 leukemia
NCI-H226 lung = test system: NCI-H226 lung
NCI-H23 lung = test system: NCI-H23 lung
NCI-H460 lung = test system: NCI-H460 lung
NCI-H522 lung = test system: NCI-H522 lung
NCI/ADR-RES ovarian = test system: NCI/ADR-RES ovarian
OVCAR-3 ovarian = test system: OVCAR-3 ovarian
OVCAR-4 ovarian = test system: OVCAR-4 ovarian
OVCAR-5 ovarian = test system: OVCAR-5 ovarian
OVCAR-8 ovarian = test system: OVCAR-8 ovarian
PC-3 prostate = test system: PC-3 prostate
RPMI-8226 leukemia = test system: RPMI-8226 leukemia
RXF 393 renal = test system: RXF 393 renal
SF-268 CNS = test system: SF-268 CNS
SF-295 CNS = test system: SF-295 CNS
SF-539 CNS = test system: SF-539 CNS
SK-MEL-2 melanoma = test system: SK-MEL-2 melanoma
SK-MEL-28 melanoma = test system: SK-MEL-28 melanoma
SK-MEL-5 melanoma = test system: SK-MEL-5 melanoma
SK-OV-3 ovarian = test system: SK-OV-3 ovarian
SN12C renal = test system: SN12C renal
SNB-19 CNS = test system: SNB-19 CNS
SNB-75 CNS = test system: SNB-75 CNS
SW-620 colon = test system: SW-620 colon
T-47D breast = test system: T-47D breast
TK-10 renal = test system: TK-10 renal
U251 CNS = test system: U251 CNS
UACC-257 melanoma = test system: UACC-257 melanoma
UACC-62 melanoma = test system: UACC-62 melanoma
UO-31 renal = test system: UO-31 renal

Structure (SMILES): c1ccc(-c2cn(-c3ccccc3)c(-c3ccccc3)n2)cc1
- GI50 (786-0 renal): 2.3 µM
- TGI (786-0 renal): 4.67 µM
- GI50 (A498 renal): 15.4 µM
- TGI (A498 renal): 28.8 µM
- GI50 (A549 NSCLC): 13.2 µM
- TGI (A549 NSCLC): 26.6 µM
- GI50 (ACHN renal): 15.4 µM
- TGI (ACHN renal): 28.7 µM
- GI50 (BT-549 breast): 16 µM
- TGI (BT-549 breast): 30.5 µM
- GI50 (CAKI-1 renal): 17.4 µM
- TGI (CAKI-1 renal): 31.6 µM
- GI50 (CCRF-CEM leukemia): 2.75 µM
- TGI (CCRF-CEM leukemia): 7.06 µM
- GI50 (COLO 205 colon): 10.9 µM
- TGI (COLO 205 colon): 23.4 µM
- GI50 (DU-145 prostate): 11.6 µM
- TGI (DU-145 prostate): 23.8 µM
- GI50 (EKVX NSCLC): 15.1 µM
- TGI (EKVX NSCLC): 28.9 µM
- GI50 (HCC-2998 colon): 7.82 µM
- TGI (HCC-2998 colon): 20.6 µM
- GI50 (HCT-116 colon): 1.76 µM
- TGI (HCT-116 colon): 3.27 µM
- GI50 (HCT-15 colon): 3.84 µM
- TGI (HCT-15 colon): 17.8 µM
- GI50 (HL-60(TB) leukemia): 3.07 µM
- TGI (HL-60(TB) leukemia): 17.9 µM
- GI50 (HOP-62 NSCLC): 2.72 µM
- TGI (HOP-62 NSCLC): 7.88 µM
- GI50 (HOP-92 NSCLC): 20.1 µM
- TGI (HOP-92 NSCLC): 50.4 µM
- GI50 (HT29 colon): 4.79 µM
- TGI (HT29 colon): 20.4 µM
- GI50 (IGROV1 ovarian): 11.9 µM
- TGI (IGROV1 ovarian): 25.2 µM
- GI50 (K-562 leukemia): 3.54 µM
- TGI (K-562 leukemia): 18.7 µM
- GI50 (KM12 colon): 2.19 µM
- TGI (KM12 colon): 4.67 µM
- GI50 (LOX IMVI melanoma): 1.95 µM
- TGI (LOX IMVI melanoma): 4.29 µM
- GI50 (M14 melanoma): 11 µM
- TGI (M14 melanoma): 23.8 µM
- GI50 (MALME-3M melanoma): 19.5 µM
- TGI (MALME-3M melanoma): 36.7 µM
- GI50 (MCF7 breast): 1.59 µM
- TGI (MCF7 breast): 5.76 µM
- GI50 (MDA-MB-231 breast): 18.4 µM
- TGI (MDA-MB-231 breast): 36.5 µM
- GI50 (MDA-MB-435): 7.58 µM
- TGI (MDA-MB-435): 24.7 µM
- GI50 (MOLT-4 leukemia): 3.16 µM
- TGI (MOLT-4 leukemia): > 100 µM
- GI50 (NCI-H226 lung): 19.8 µM
- TGI (NCI-H226 lung): 37.7 µM
- GI50 (NCI-H23 lung): 16.6 µM
- TGI (NCI-H23 lung): 34.9 µM
- GI50 (NCI-H460 lung): 13.8 µM
- TGI (NCI-H460 lung): 29.7 µM
- GI50 (NCI-H522 lung): 13.3 µM
- TGI (NCI-H522 lung): 27.2 µM
- GI50 (NCI/ADR-RES ovarian): 19.6 µM
- TGI (NCI/ADR-RES ovarian): 44.9 µM
- GI50 (OVCAR-3 ovarian): 6.38 µM
- TGI (OVCAR-3 ovarian): 18.6 µM
- GI50 (OVCAR-4 ovarian): 16.4 µM
- TGI (OVCAR-4 ovarian): 31 µM
- GI50 (OVCAR-5 ovarian): 19.8 µM
- TGI (OVCAR-5 ovarian): 39.7 µM
- GI50 (OVCAR-8 ovarian): 7.89 µM
- TGI (OVCAR-8 ovarian): 20.4 µM
- GI50 (PC-3 prostate): 17.1 µM
- TGI (PC-3 prostate): 45.6 µM
- GI50 (RPMI-8226 leukemia): 2.31 µM
- TGI (RPMI-8226 leukemia): 5.47 µM
- GI50 (RXF 393 renal): 17.5 µM
- TGI (RXF 393 renal): 33.9 µM
- GI50 (SF-268 CNS): 14.8 µM
- TGI (SF-268 CNS): 29.5 µM
- GI50 (SF-295 CNS): 12.9 µM
- TGI (SF-295 CNS): 28.4 µM
- GI50 (SF-539 CNS): 14.2 µM
- TGI (SF-539 CNS): 27.9 µM
- GI50 (SK-MEL-2 melanoma): 13.9 µM
- TGI (SK-MEL-2 melanoma): 27.2 µM
- GI50 (SK-MEL-28 melanoma): 4.75 µM
- TGI (SK-MEL-28 melanoma): 16.5 µM
- GI50 (SK-MEL-5 melanoma): 14.9 µM
- TGI (SK-MEL-5 melanoma): 28.3 µM
- GI50 (SK-OV-3 ovarian): 19.3 µM
- TGI (SK-OV-3 ovarian): 34 µM
- GI50 (SN12C renal): 15.4 µM
- TGI (SN12C renal): 30.6 µM
- GI50 (SNB-19 CNS): 11.5 µM
- TGI (SNB-19 CNS): 23.9 µM
- GI50 (SNB-75 CNS): 14 µM
- TGI (SNB-75 CNS): 27.7 µM
- GI50 (SW-620 colon): 1.95 µM
- TGI (SW-620 colon): 3.83 µM
- GI50 (T-47D breast): 9.3 µM
- TGI (T-47D breast): 26.2 µM
- GI50 (TK-10 renal): 14.7 µM
- TGI (TK-10 renal): 30.9 µM
- GI50 (U251 CNS): 4.08 µM
- TGI (U251 CNS): 15.9 µM
- GI50 (UACC-257 melanoma): 13.4 µM
- TGI (UACC-257 melanoma): 26.1 µM
- GI50 (UACC-62 melanoma): 15.3 µM
- TGI (UACC-62 melanoma): 29.8 µM
- GI50 (UO-31 renal): 11 µM
- TGI (UO-31 renal): 22.9 µM
